Source: paper PMC3614987, “Exploring the Chemical Space around 8-Mercaptoguanine as a Route to New Inhibitors of the Folate Biosynthesis Enzyme HPPK” (PLoS ONE, 2013)
“Also recorded” adds a separate entry of the source. Read-outs that look alike come from different tables or passages of the source.

How the values were obtained:
[1] = target: T1, SaHPPK (Staphylococcus aureus, UniProt A0A0H3JXR3); set-up: method as in Chhabra et al PlosONE 2012; details: ITC; ref Chhabra et al PlosONE 2012; cited from earlier work
[2] = target: T1, SaHPPK; set-up: method as in PMID 22276115; details: SPR and ITC; cited from earlier work
[3] = target: T1, SaHPPK; set-up: method as in PMID 22276115; details: inhibition of the S. aureus enzyme; cited from earlier work
[4] = target: T1, SaHPPK; experiment: SPR binding to SaHPPK
Description: Initially, the binding of each of the test compounds to SaHPPK was quantitatively assessed using SPR (Fig. S1, S2). […] Moreover, all sensorgrams (Fig. S1 and S2) were of high quality and consistent with near perfect 1∶1 stoichiometric binding of analogues. Table 1 lists the estimated equilibrium dissociation constants (KD). […] This supports the hypothesis that the 8-mercapto group of 8-MG aids binding through the formation of one or more favorable interactions with SaHPPK.
All SPR binding experiments were performed as described previously. The only difference was the use of a sulfhydryl reactive maleimide-activated biotin derivative (Thermo Scientific, 1-biotinamido-4-(4′-[maleimidoethylcyclohexane]-carboxamido)butane. The maleimide-activated biotin was attached to the exposed surface cysteine residue of SaHPPK according to manufacturer’s instructions. The resulting site-specific biotinylated protein was immobilized onto the sensor chip surface using the Biotin capture kit (GE Healthcare). All analogues were serially diluted (either 2- or 3-fold from 126 µM down to 1.5 µM) in SPR binding buffer (50 mM HEPES, 150 mMNaCl, 1 mM TCEP, 0.05% (v/v) Tween-20, 10 mM MgCl2, 5% (v/v) DMSO, pH 8.0) and injected for 30 sec contact time at 60 µL/min and then allowed to dissociate for 60 sec. Binding sensorgrams were processed using the Scrubber (version 2c, BioLogic Software, Campbell, Australia). To determine the binding affinity (equilibrium dissociation constant; KD), responses at equilibrium for each compound were fit to a 1∶1 steady state affinity model available within Scrubber.

[5] = target: T1, SaHPPK; experiment: ITC binding to SaHPPK; details: 298 K; for ΔG: calculated as -RT.lnKa; for TΔS: calculated using ΔG = ΔH - TΔS; for Kd: read-out: K D ITC
Experimental: To corroborate the ligand binding affinities determined by SPR, and to determine the enthalpic and entropic contributions to the free energy of binding, ITC experiments were performed for selected compounds (21a and 21c–21e) (Table 2, Fig. S3). […] To investigate the factors contributing to the free energy of binding, we solved the structure of SaHPPK in complex with 21a.
Experiments were performed using an iTC200 instrument (MicroCal) at 298 K, with the ligands titrated into solutions of SaHPPK using 18×2.2 µL injections. Data were fitted using Origin software to yield the thermodynamic parameters, ΔH, KD and N (the binding stoichiometry), assuming a cell volume of 0.2 mL. These were then used to calculate the Gibb’s free energy of binding, ΔG (-RT.lnK a), and entropy of binding, ΔS (using ΔG = ΔH - TΔS). A stock solution of SaHPPK was dialyzed overnight into 50 mM HEPES, 1 mM TCEP, 10 mM MgCl2, pH 8.0 buffer with the addition of 5% DMSO (v/v) prior to running the experiment. For titrations with compounds 21a–e, SaHPPK was typically at 30 µM and the ligand stocks were at 1–1.5 mM dissolved in the above buffer then diluted into more of the same buffer. There was no apparent issue with limited solubility of 21a–c compromising either the stock solutions or the injected concentrations.

[6] = target: T1, SaHPPK; experiment: 2D 15N NMR titration of 15N-labelled SaHPPK; type: binding
Experimental: ^15N-labelled protein samples for NMR spectroscopy were prepared as described. 2D soFast ^15N HMQC [43] NMR experiments were recorded on a Varian Inova 600 MHz NMR spectrometer equipped with a cryoprobe and Z axis gradient on samples of ∼100 µM ^15N-labelled SaHPPK dissolved in 50 mM HEPES buffer (pH 8.0, 90% H2O 10% D2O, 1% sorbitol) by titrating in aliquots from a 25 mM stock of 21a dissolved in DMSO-D6.

[7] = target: T1, SaHPPK; details: cofactor analogue; no reference given; cited from earlier work
[8] = target: HPPK; set-up: method as in PMID 10751386, PMID 12093297, PMID 11311059, PMID 10825540, PMID 22169600; details: ATP binds prior to the substrate; cited from earlier work
[9] = SPR, in the presence of 10 mM Mg2+/1 mM ATP, 293 K, read-out: K D b
[10] = SPR, in the presence of 10 mM Mg2+, 293 K
[11] = SPR, in the presence of 10 mM Mg2+, 293 K, read-out: K D a

| SMILES | Kd [4, 9] [µM] | melting point | Kd [4, 11] [µM] | N (binding stoichiometry) [5] | ΔH [5] [kJ/mol] | ΔG [5] [kJ/mol] | TΔS [5] [kJ/mol] | Kd [5] [µM] | further results |
| --- | --- | --- | --- | --- | --- | --- | --- | --- | --- |
| Nc1nc2nc(S)[nH]c2c(=O)[nH]1 [8-MG, 8-mercaptoguanine] | – | – | – | – | – | – | – | – | N (binding stoichiometry) [1]: 1.0±0.06; TΔS [1]: -54 ± 14.6 kJ/mol; ΔG [1]: -28 ± 0.84 kJ/mol; ΔH [1]: -82 ± 14.2 kJ/mol; binding relative to the cofactor (ATP / AMPCPP) [2]: non-competitive; IC50 [3]: ~41 µM |
| CNc1nc2nc(N)[nH]c(=O)c2[nH]1 [10a, 8-(Methylamino)guanine] | 108 ± 5 | 252 to 257 °C (dec.) | – | – | – | – | – | – | K D a [4, 10]: did not bind; also recorded: No binding |
| Cn1c(S)nc2c(=O)[nH]c(N)nc21 [15a] | 410 ± 10 | – | 194 ± 5 | – | – | – | – | – | – |
| CCn1c(S)nc2c(=O)[nH]c(N)nc21 [15b, 8-Mercapto-9-ethylguanine] | 340 ± 10 | 240 to 244 °C (dec.) | 190 ± 10 | – | – | – | – | – | – |
| Nc1nc2c(nc(S)n2Cc2ccccc2)c(=O)[nH]1 [15c, 8-Mercapto-9-benzylguanine] | 201 ± 6 | > 300 °C (dec.) | 106 ± 2 | – | – | – | – | – | – |
| Nc1nc2c(nc(S)n2CCc2ccccc2)c(=O)[nH]1 [15d, 8-Mercapto-9-phenethylguanine] | 510 ± 20 | 291 to 295 °C (dec.) | 145 ± 4 | – | – | – | – | – | – |
| Nc1ncnc2c1ncn2[C@@H]1O[C@H](COP(=O)(O)CP(=O)(O)OP(=O)(O)O)[C@@H](O)[C@H]1O [AMPCPP] | – | – | – | – | – | – | – | – | Kd [7]: 3 µM |
| Nc1ncnc2c1ncn2[C@@H]1O[C@H](COP(=O)(O)OP(=O)(O)OP(=O)(O)O)[C@@H](O)[C@H]1O [ATP] | – | – | – | – | – | – | – | – | Kd [8]: 2.6 to 4.5 µM |

Now from value to molecule, other results behind:

| Kd [4, 9] [µM] | melting point | Kd [4, 11] [µM] | N (binding stoichiometry) [5] | ΔH [5] [kJ/mol] | ΔG [5] [kJ/mol] | TΔS [5] [kJ/mol] | Kd [5] [µM] | SMILES | further results |
| --- | --- | --- | --- | --- | --- | --- | --- | --- | --- |
| 130 ± 10 | > 300 °C | 12.3 ± 1 | 0.8±0.10 | -43.9 ± 2.5 | -26.8 ± 0.42 | -17.2 ± 2.1 | 16.7 ± 3.5 | Nc1nc2nc(S)n(CCO)c2c(=O)[nH]1 [21a, 7-(2-Hydroxyethyl)-8-mercaptoguanine] | Kd ([4]; approximate value, over 15 heavy atoms, read-out: K D (ligand efficiency comparison)): ~10 µM; binding relative to the cofactor (ATP / AMPCPP) ([6]; NMR (and SPR), saturating AMPCPP 1 mM, 10 mM magnesium): competitive binding with the ATP cofactor; also recorded: competitive with AMPCPP; magnesium dependence of binding ([6]; titration into apo and magnesium-loaded SaHPPK): not magnesium-dependent |
| 140 ± 4 | 247 to 253 °C (dec.) | – | – | – | – | – | – | Nc1nc2nc(S)n(CC(=O)O)c2c(=O)[nH]1 [21b, 2-(8-Mercaptoguanin-7-yl)acetic acid] | K D a [4, 10]: did not bind; also recorded: No binding |
| 160 ± 20 | 280 to 287 °C (dec.) | 26.4 ± 3 | 1.2±0.02 | -24.3 ± 0.42 | -25.9 ± 0.42 | 1.7 ± 0.84 | 22.4 ± 2 | NCCn1c(S)nc2nc(N)[nH]c(=O)c21 [21c, 7-(2-Aminoethyl)-8-mercaptoguanine] | – |
| 121 ± 6 | 239 to 243 °C (dec.) | 25.9 ± 2 | 1.3±0.05 | -25.9 ± 1.7 | -25.1 ± 0.42 | -0.84 ± 2.1 | 34.3 ± 6.2 | NCCCn1c(S)nc2nc(N)[nH]c(=O)c21 [21d, 7-(3-Aminopropyl)-8-mercaptoguanine] | – |
| – | 256 to 262 °C (dec.) | 30 ± 4 | 1.4±0.02 | -18 ± 0.42 | -25.1 ± 0.42 | 7.11 ± 0.84 | 35.1 ± 4.8 | N=C(N)NCCn1c(S)nc2nc(N)[nH]c(=O)c21 [21e, 7-(2-Guanidinoethyl)-8-mercaptoguanine] | K D b ([4]; SPR, in the presence of 10 mM Mg2+/1 mM ATP, 293 K): No binding |
